Two compounds from patent US11499978B2, “Method for measuring quality of therapeutic cell through real-time glutathione measurement” (CELL2IN, INC., priority 2017, dated 2022) can be followed below.

Each structure is given as a SMILES string.

Test [1] relates to hUC-MSCs. The test is described as follows: mGSH distribution in hUC-MSCs after RSL3 (MitoFreSH, flow cytometry and confocal imaging). It counts as cell-based, human. The procedure: After the cultured human umbilical cord-derived mesenchymal stem cells (hUC-MSCs) at passage 4, 7 or 15 were treated with various concentrations of RSL3 and stained with MitoFreSH, the distribution pattern of mitochondrial GSH (mGSH) in the cells was confirmed by histograms using flow cytometry and confocal imaging.
hUC-MSCs at passage 4, 7 or 15 were prepared, seeded at 70000 cells/well in a 6-well cell culture plate, and cultured at 37° C. for 24 hours. The medium used in the culture was prepared by adding 10% fetal bovine serum and 1× penicillin-streptomycin to α-MEM. […] The cells detached from the plate were transferred to an FACS tube and stored on ice, and a fluorescence level was measured using a flow cytometer.
hUC-MSCs at passage 4, 7 or 15 were prepared, seeded at 7000 cells/100 μl per well in a 96-well cell culture plate, and cultured at 37° C. for 24 hours. […] To remove MitoFreSH-Tracer from the medium before measurement, the medium was exchanged with fresh 10 mM HEPES-containing HBSS, and fluorescence images were measured using a confocal imaging system, Operetta.
A F510/F580 ratio referring to a GSH mean value in cells was calculated by measuring fluorescence values of F510 (fluorescence value when MitoFreSH-Tracer was bound with SH) and F580 (fluorescence value of MitoFreSH-Tracer, which was not bound with SH) in cells and dividing the F510 value by the F580 value. […]

Test [2] relates to hUC-MSCs. The test is described as follows: CFU-F assay of hUC-MSCs. The class given is cell-based, human. As to conditions: ferrostatin-1 0.2, 1, 2 and 4 μM, liproxstatin-1 0.1, 0.5, 1 and 2 μM, 24 hours, n=3. As to the method:
The inventors observed an effect of the material on stem cells by treating each stem cells with a material for enhancing a glutathione evaluation parameter. When hUC-MSCs were subcultured in a L-AA2G-containing medium, CFU-F, migration capacity, and an anti-inflammatory effect were observed. A CFU-F assay (n=3) was performed by treating hUC-MSCs with 125 or 250 μg/mL of AA2G for three days. As shown in FIGS. 16A and 16B, it was confirmed that, when AA2G was treated, CFU-F increased. In addition, as hUC-MSCs were treated with 125 or 250 μg/mL of AA2G for three days, PDGF-AA-induced migration capacity (n=3) was analyzed. As shown in FIGS. 17A and 17B, it was confirmed that the migration capacity was increased by AA2G treatment. In addition, the reduction in T cell proliferation, the reduction in T cell differentiation, and the promotion of Treg cell differentiation were observed by treating hUC-MSCs with 125 or 250 μg/mL of AA2G for three days. […] Meanwhile, hUC-MSCs were cultured with a glutathione precursor such as γ-glutamyl cysteine (GGC, 0.1, 0.25, and 0.5 mM). A CFU-F assay (n=3) was performed by treating hUC-MSCs with each concentration of GGC for 2 hours. […] In addition, SDF1α and PDGF-AA-induced migration capacities (n=3) were analyzed for hUC-MSCs without treatment with GGC, and SDF1α and PDGF-AA-induced migration abilities (n=3) were analyzed by treating hUC-MSCs with the increasing concentrations of GGC. STI571 was used as a PDGFR kinase inhibitor. As shown in FIGS. 20A to 20C, it was confirmed that, according to an increase in GGC treatment concentration, SDF1α- and PDGF-AA-induced migration capacities were enhanced. A CFU-F assay (n=3) was performed by treating hUC-MSCs with 0.2, 1, 2, and 4 μM ferrostatin-1 and 0.1, 0.5, 1, and 2 μM liproxstatin-1 for 24 hours.

Another test deals with T cells. The test is described as follows: Anti-inflammatory effect of treated hUC-MSCs on T cells. The class given is cell-based. The procedure:
The inventors observed an effect of the material on stem cells by treating each stem cells with a material for enhancing a glutathione evaluation parameter. When hUC-MSCs were subcultured in a L-AA2G-containing medium, CFU-F, migration capacity, and an anti-inflammatory effect were observed. A CFU-F assay (n=3) was performed by treating hUC-MSCs with 125 or 250 μg/mL of AA2G for three days. As shown in FIGS. 16A and 16B, it was confirmed that, when AA2G was treated, CFU-F increased. In addition, as hUC-MSCs were treated with 125 or 250 μg/mL of AA2G for three days, PDGF-AA-induced migration capacity (n=3) was analyzed. As shown in FIGS. 17A and 17B, it was confirmed that the migration capacity was increased by AA2G treatment. In addition, the reduction in T cell proliferation, the reduction in T cell differentiation, and the promotion of Treg cell differentiation were observed by treating hUC-MSCs with 125 or 250 μg/mL of AA2G for three days.
In addition, hUC-MSCs were cultured with ferrostatin-1 (0.2, 1, 2 and 4 μM) and liproxstatin-1 (0.1, 0.5, 1 and 2 μM), which control a glutathione level in cells by inhibiting lipid oxidation. […] Meanwhile, the hUC-MSCs were treated with 1 μM ferrostatin-1 for 24 hours, 0.2 mM GGC for 2 hours, and 2 mM GSH-EE for 2 hours. As a result, the reduction in T cell proliferation ability and the reduction in T cell differentiation capacity were observed, and promotion of Treg cell differentiation was observed.

Another test has as its system human dermal fibroblasts. Put plainly: mGSH level in human dermal fibroblasts after RSL3. It counts as cell-based. Conditions: as the subculture continued; confocal imaging. The procedure:
As described in the experiment for MSCs, human dermal fibroblasts subcultured several times were treated with RSL3 and the cells were stained with MitoFreSH-Tracer, and a ratio between cells maintaining mGSH and cells not maintaining mGSH was represented as a percentage through confocal imaging.

Test [3] has as its system hUC-MSCs. The test is described as follows: CD146 surface expression in mGSH High and mGSH Low hUC-MSCs after RSL3. The class given is cell-based, human. Conditions: P4 hUC-MSC group in which mGSH level is lowered by RSL3, compared with mGSH level-maintaining group. The text has this: To confirm whether the stem cell function of cells in which an mGSH level decreased is deteriorated under lipid oxidative stress caused by RSL3 treatment, an expression level of CD146, which is a cell surface protein known to be highly expressed in stem cells of high quality according to conventional literature, was confirmed through flow cytometry.
The cells were stained by the same method as a method of measuring a mitochondria GSH level through the flow cytometry described above, and detached from the plate using trypsin. The detached cells were treated with an antibody for flow cytometry with respect to CD146 to which a fluorescent material BUV395 was bound at 4° C. for 30 minutes, and washed with PBS. Using a flow cytometer, F510 and F580 fluorescence values for measuring a GSH level and a BUV395 fluorescence value for measuring CD146 expression were measured. Afterward, based on the point at which the histogram showing the F510/F580 distribution was divided into two peaks, the cells were divided into GSH^High cells (right peak) and GSH^Low cells (left peak) using FlowJo software, and a CD146-positive ratio of the corresponding cells is represented as a percentage (%).

Setting [4] is: hUC-MSCs treated with 1 μM ferrostatin-1 24 h, 0.2 mM GGC 2 h, 2 mM GSH-EE 2 h.

As for `CCOC(=O)c1ccc(NC2CCCCC2)c(N)c1` [ferrostatin-1], the “effect of RSL3 on mGSH upon Ferrostatin-1 treatment” value in the test with hUC-MSCs [1] (hUC-MSCs treated with RSL3) is on record as “disappeared”. Also, the CFU-F result in the test on hUC-MSCs [2] is “improved”. Further, the “anti-inflammatory effect of the hUC-MSCs” value in the test on T cells (ferrostatin-1 1 μM 24 h, GGC 0.2 mM 2 h, FIGS. 27, 28A to 28C) is listed as “did not alter”. In addition, in the test on T cells (setting [4]), the “T cell differentiation capacity” value is given as “reduction”, the “T cell proliferation ability” value is on record as “reduction” and the Treg cell differentiation entry is “promotion”.

Take `COC(=O)c1ccc([C@@H]2c3[nH]c4ccccc4c3C[C@@H](C(=O)OC)N2C(=O)CCl)cc1` [RSL3, 1S,3R-RAS-selective lethal 3]: the mGSH levels entry in the test with hUC-MSCs [1] (hUC-MSCs at passage 4, 7 or 15, RSL3 0.1/0.5/1 μM, depending on RSL3 concentration and passage number) is recorded as “reduced”. For the same compound, the “proportion of cells in which mGSH decreases by treatment with RSL3” value in the test with human dermal fibroblasts was “increased”. Besides, the “lowering of CD146-positive ratio” value with hUC-MSCs [3] was “approximately 25%”.
